ChEMBL document CHEMBL3046146, “Mutations in the mitochondrial cytochrome b of Tetranychus urticae Koch (Acari: Tetranychidae) confer cross-resistance between bifenazate and acequinocyl” (2009)
≈ marks a conversion by molar mass, not a printed value.

Legend:
Format in all cases: functional
Tetranychus urticae [1] = assay: Resistance ratio of LC50 for bifenazate-resistant Tetranychus urticae BR-VL (two-spotted spider mite) harboring mitochondrial G126S, S141F and D161G Cytb mutation to LC50 for Tetranychus urticae GSS
Tetranychus urticae [2] = assay: Toxicity against adult Tetranychus urticae HOL2 (two-spotted spider mite) harboring mitochondrial G126S Cytb mutation in compound pretreated bean leaves assessed as mortality
Tetranychus urticae [3] = assay: Toxicity against adult Tetranychus urticae HOL3 (two-spotted spider mite) harboring mitochondrial P262T Cytb heteroplasmic mutation in compound pretreated bean leaves assessed as mortality
Tetranychus urticae [4] = assay: Resistance ratio of LC50 for Tetranychus urticae HOL2 (two-spotted spider mite) harboring mitochondrial G126S Cytb mutation to LC50 for Tetranychus urticae GSS
Tetranychus urticae [5] = assay: Resistance ratio of LC50 for METI-resistant Tetranychus urticae MR-VP (two-spotted spider mite) to LC50 for Tetranychus urticae GSS
Tetranychus urticae [6] = assay: Toxicity against adult Tetranychus urticae HOL4 (two-spotted spider mite) harboring mitochondrial G126S Cytb mutation in compound pretreated bean leaves assessed as mortality
Tetranychus urticae [7] = assay: Toxicity against adult Tetranychus urticae MR-VL (two-spotted spider mite) in compound pretreated bean leaves assessed as mortality
Tetranychus urticae [8] = assay: Toxicity against adult bifenazate-resistant Tetranychus urticae BR-VL (two-spotted spider mite) harboring mitochondrial G126S, S141F and D161G Cytb mutation in compound pretreated bean leaves assessed as mortality
Tetranychus urticae [9] = assay: Toxicity against adult bifenazate-susceptible Tetranychus urticae LS-VL (two-spotted spider mite) in compound pretreated bean leaves assessed as mortality
Tetranychus urticae [10] = assay: Toxicity against adult Tetranychus urticae GSS (two-spotted spider mite) in compound pretreated bean leaves assessed as mortality
Tetranychus urticae [11] = assay: Resistance ratio of LC50 for Tetranychus urticae (two-spotted spider mite) HOL4 harboring mitochondrial G126S Cytb mutation to LC50 for Tetranychus urticae GSS
Tetranychus urticae [12] = assay: Resistance ratio of LC50 for bifenazate-susceptible Tetranychus urticae LS-VL (two-spotted spider mite) to LC50 for Tetranychus urticae GSS
Tetranychus urticae [13] = assay: Toxicity against adult Tetranychus urticae HOL1 (two-spotted spider mite) harboring mitochondrial G126S and I136T Cytb mutation in compound pretreated bean leaves assessed as mortality
Tetranychus urticae [14] = assay: Resistance ratio of LC50 for Tetranychus urticae WI (two-spotted spider mite) to LC50 for Tetranychus urticae GSS
Tetranychus urticae [15] = assay: Resistance ratio of LC50 for bifenazate-resistant Tetranychus urticae (two-spotted spider mite) BEL1 harboring mitochondrial P262T Cytb fixed mutation to LC50 for Tetranychus urticae GSS
Tetranychus urticae [16] = assay: Resistance ratio of LC50 for Tetranychus urticae MR-VL (two-spotted spider mite) to LC50 for Tetranychus urticae GSS
Tetranychus urticae [17] = assay: Toxicity against adult bifenazate-resistant Tetranychus urticae BEL1 (two-spotted spider mite) harboring mitochondrial P262T Cytb fixed mutation in compound pretreated bean leaves assessed as mortality; conditions: BEL-1
Tetranychus urticae [18] = assay: Resistance ratio of LC50 for Tetranychus urticae HOL3 (two-spotted spider mite) harboring mitochondrial P262T Cytb heteroplasmic mutation to LC50 for Tetranychus urticae GSS
Tetranychus urticae [19] = assay: Toxicity against adult Tetranychus urticae WI (two-spotted spider mite) in compound pretreated bean leaves assessed as mortality
Tetranychus urticae [20] = assay: Toxicity against adult METI-resistant Tetranychus urticae MR-VP (two-spotted spider mite) in compound pretreated bean leaves assessed as mortality
Tetranychus urticae [21] = assay: Resistance ratio of LC50 for Tetranychus urticae HOL1 (two-spotted spider mite) harboring mitochondrial G126S and I136T Cytb mutation to LC50 for Tetranychus urticae GSS
Tetranychus urticae [22] = assay: Toxicity against adult Tetranychus urticae BEL1 (two-spotted spider mite) in bean leaves assessed as mortality treated 24 hr after 2000 mg/L esterase inhibitor, DEF application; conditions: BEL-1, 24 h
Tetranychus urticae [23] = assay: Toxicity against female adult Tetranychus urticae (two-spotted spider mite) F1 progeny generated from reciprocal cross between female GSS and male BEL1 in compound pretreated bean leaves assesed as mortality
Tetranychus urticae [24] = assay: Toxicity against adult Tetranychus urticae BEL1 (two-spotted spider mite) in bean leaves assessed as mortality treated 24 hr after 2000 mg/L GST inhibitor, DEM application; conditions: BEL-1, 24 h
Tetranychus urticae [25] = assay: Toxicity against adult Tetranychus urticae GSS (two-spotted spider mite) in bean leaves assessed as mortality treated 24 hr after 1000 mg/L esterase inhibitor, DEF application
Tetranychus urticae [26] = assay: Synergism ratio of LC50 for adult Tetranychus urticae GSS (two-spotted spider mite) to LC50 for adult Tetranychus urticae GSS in presence of 1000 mg/L esterase inhibitor, DEF application
Tetranychus urticae [27] = assay: Toxicity against adult Tetranychus urticae GSS (two-spotted spider mite) in bean leaves assessed as mortality treated 24 hr after 2000 mg/L GST inhibitor, DEM application
Tetranychus urticae [28] = assay: Toxicity against adult Tetranychus urticae BR-VL (two-spotted spider mite) in bean leaves assessed as mortality treated 24 hr after 2000 mg/L esterase inhibitor, DEF application
Tetranychus urticae [29] = assay: Toxicity against adult Tetranychus urticae BR-VL (two-spotted spider mite) in bean leaves assessed as mortality treated 24 hr after 2000 mg/L cytochrome P450 monoxygenase inhibitor, PBO application
Tetranychus urticae [30] = assay: Toxicity against female adult Tetranychus urticae (two-spotted spider mite) F1 progeny generated from reciprocal cross between female BEL1 and male GSS in compound pretreated bean leaves assesed as mortality
Tetranychus urticae [31] = assay: Toxicity against female adult Tetranychus urticae (two-spotted spider mite) F1 progeny generated from reciprocal cross between female BR-VL and male GSS in compound pretreated bean leaves assesed as mortality
Tetranychus urticae [32] = assay: Toxicity against female adult Tetranychus urticae (two-spotted spider mite) F1 progeny generated from reciprocal cross between female GSS and male BR-VL in compound pretreated bean leaves assesed as mortality
Tetranychus urticae [33] = assay: Toxicity against adult Tetranychus urticae BR-VL (two-spotted spider mite) in bean leaves assessed as mortality treated 24 hr after 2000 mg/L GST inhibitor, DEM application
Tetranychus urticae [34] = assay: Toxicity against adult Tetranychus urticae GSS (two-spotted spider mite) in bean leaves assessed as mortality treated 24 hr after 2000 mg/L cytochrome P450 monoxygenase inhibitor, PBO application
Tetranychus urticae [35] = assay: Synergism ratio of LC50 for adult Tetranychus urticae GSS (two-spotted spider mite) to LC50 for adult Tetranychus urticae GSS in presence of 2000 mg/L cytochrome P450 monoxygenase inhibitor, PBO
Tetranychus urticae [36] = assay: Toxicity against adult Tetranychus urticae BEL1 (two-spotted spider mite) in bean leaves assessed as mortality treated 24 hr after 2000 mg/L cytochrome P450 monoxygenase inhibitor, PBO application; conditions: BEL-1, 24 h
Tetranychus urticae [37] = assay: Synergism ratio of LC50 for adult Tetranychus urticae GSS (two-spotted spider mite) to LC50 for adult Tetranychus urticae GSS in presence of 2000 mg/L GST inhibitor, DEM application

| Structure (SMILES) | RatioLC50 (Tetranychus urticae [1]) | LC50 (Tetranychus urticae [2]) [µg/mL] | LC50 (Tetranychus urticae [3]) [µg/mL] | RatioLC50 (Tetranychus urticae [4]) | RatioLC50 (Tetranychus urticae [5]) | LC50 (Tetranychus urticae [6]) [µg/mL] | LC50 (Tetranychus urticae [7]) [µg/mL] | LC50 (Tetranychus urticae [8]) [µg/mL] | LC50 (Tetranychus urticae [9]) [µg/mL] | LC50 (Tetranychus urticae [10]) [µg/mL] | RatioLC50 (Tetranychus urticae [11]) | RatioLC50 (Tetranychus urticae [12]) | LC50 (Tetranychus urticae [13]) [µg/mL] | RatioLC50 (Tetranychus urticae [14]) | RatioLC50 (Tetranychus urticae [15]) | RatioLC50 (Tetranychus urticae [16]) | LC50 (Tetranychus urticae [17]) [µg/mL] | RatioLC50 (Tetranychus urticae [18]) | LC50 (Tetranychus urticae [19]) [µg/mL] | LC50 (Tetranychus urticae [20]) [µg/mL] | further results |
| --- | --- | --- | --- | --- | --- | --- | --- | --- | --- | --- | --- | --- | --- | --- | --- | --- | --- | --- | --- | --- | --- |
| COc1ccc(-c2ccccc2)cc1NNC(=O)OC(C)C [BIFENAZATE] | >2780 | 43.4 (≈ 144 µM) | > 10000 | 12.1 | 2 | > 10000 | 10.5 (≈ 35 µM) | > 10000 | 1.6 (≈ 5.33 µM) | 3.6 (≈ 12 µM) | >2780 | 0.4 | > 10000 | 2.4 | >2780 | 2.9 | > 10000 | >2780 | 8.7 (≈ 29 µM) | 7.3 (≈ 24.3 µM) | RatioLC50 (Tetranychus urticae [21]): >2780 |
| CO/C=C(/C(=O)OC)c1ccccc1COc1cc(C(F)(F)F)nc(OC(C)C)n1 [FLUACRYPYRIM] | >1515 | > 10000 | > 10000 | >1515 | >1515 | > 10000 | 28.8 (≈ 67.5 µM) | > 10000 | > 10000 | 6.6 (≈ 15.5 µM) | >1515 | >1515 | > 10000 | 0.5 | >1515 | 4.4 | > 10000 | >1515 | 3 (≈ 7.04 µM) | > 10000 | LC50 (Tetranychus urticae [22]): > 10000 µg/mL; LC50 (Tetranychus urticae [23]): > 10000 µg/mL; LC50 (Tetranychus urticae [24]): > 10000 µg/mL; LC50 (Tetranychus urticae [25]): 4.2 µg/mL (≈ 9.85 µM); RatioLC50 (Tetranychus urticae [26]): 1.6; LC50 (Tetranychus urticae [27]): 12.4 µg/mL (≈ 29.1 µM); LC50 (Tetranychus urticae [28]): > 10000 µg/mL; LC50 (Tetranychus urticae [29]): > 10000 µg/mL; LC50 (Tetranychus urticae [30]): > 10000 µg/mL; LC50 (Tetranychus urticae [31]): > 10000 µg/mL; LC50 (Tetranychus urticae [32]): > 10000 µg/mL; LC50 (Tetranychus urticae [33]): > 10000 µg/mL; LC50 (Tetranychus urticae [34]): 3.8 µg/mL (≈ 8.91 µM); RatioLC50 (Tetranychus urticae [35]): 1.7; LC50 (Tetranychus urticae [36]): > 10000 µg/mL; RatioLC50 (Tetranychus urticae [37]): 0.5; RatioLC50 (Tetranychus urticae [21]): >1515 |
